Results as given in patent US20250213701A1, “MEDICAMENT FOR TREATING HUMAN TUMOR BASED ON ERF3A-TARGETING PROTEOLYSIS MECHANISM” (SUZHOU DEGEN BIO-MEDICAL CO., LTD., priority 2022, published 2025).

Legend:
Format in all cases: cell-based
DLD-1 cells = assay: Anti-proliferative toxicity of C63 in tumor cell lines (CCK8): DLD-1; conditions: Homo sapiens, 72 h, 3 days, read-out: Inhibition rate
Description: (§1) Example 83: Detection of Anti-Proliferative Toxicity of C63 in Some Tumor Cell Lines
DLD-1 cells (purchased from the Cell Bank of the Chinese Academy of Sciences, Cat. No. TCHu134) were subcultured in a culture medium (RPMI-1640 medium+1% penicillin-streptomycin dual-antibiotic solution+10% fetal bovine serum) in an incubator at 5% carbon dioxide and 37° C.
DLD-1 cells were seeded at 2000 cells/well (90 μL) on a 96-well plate and cultured for 24 h.
(§2) 10 mM compound stock solutions were prepared in DMSO.
(§3) The compound stock solution was diluted with DMSO to give DMSO solutions 1-9 at concentrations of 0 μM, 2500 μM, 500 μM, 100 μM, 20 μM, 4 μM, 0.8 μM, 0.16 μM, and 0.032 μM.
(§4) 2 μL of each of solutions 1-9 was added to 98 μL of the medium to give mixed solutions 11-19 of the compound and the medium.
(§5) 10 μL of each of solutions 11-19 was added to the above cell seed solution to give a total volume of 100 μL (90 μL+10 μL).
(§6) The concentrations of the compound in the wells were 0 μM, 5.0 μM, 1.0 μM, 0.2 μM, 0.04 μM, 0.008 μM, 0.0016 μM, 0.00032 μM, and 0.000064 μM. All concentrations were in triplicate.
(§7) After the above-treated cells were cultured for 3 days, 10 μL of the CCK8 solution (DOJINDO, Cat. No. PF725) was added to each well. The plate was incubated in an incubator at 37° C. for 1-4 h and then detected on a microplate reader for the reading at 450 nm.

HL-60 cells = assay: Anti-proliferative toxicity of C63 in tumor cell lines (CCK8): HL-60; conditions: Homo sapiens, 72 h, 3 days, read-out: Inhibition rate
Description: as §1
HL-60 cells (purchased from the Cell Bank of the Chinese Academy of Sciences, Cat. No. TCHu23) were subcultured in a culture medium (IMDM medium+1% penicillin-streptomycin dual-antibiotic solution+20% fetal bovine serum) in an incubator at 5% carbon dioxide and 37° C.
HL-60 cells were seeded at 20000 cells/well (90 μL) on a 96-well plate and cultured for 24 h.
as §2, §3, §4, §5, §6, §7

NCI-N87 cells = assay: Anti-proliferative toxicity of C63 in tumor cell lines (CCK8): NCI-N87; conditions: Homo sapiens, 72 h, 3 days, read-out: Inhibition rate
Description: as §1
NCI-N87 cells (purchased from the Cell Bank of the Chinese Academy of Sciences, Cat. No. TCHu130) were subcultured in a culture medium (RPMI-1640 medium+1% penicillin-streptomycin dual-antibiotic solution+10% fetal bovine serum) in an incubator at 5% carbon dioxide and 37° C.
NCI-N87 cells were seeded at 8000 cells/well (90 μL) on a 96-well plate and cultured for 24 h.
as §2, §3, §4, §5, §6, §7

MDA-MB-231 cells = assay: Anti-proliferative toxicity of C63 in tumor cell lines (CCK8): MDA-MB-231; conditions: Homo sapiens, 72 h, 3 days, read-out: Inhibition rate
Description: as §1
MDA-MB-231 cells (purchased from the Cell Bank of the Chinese Academy of Sciences, Cat. No. TCHu227) were subcultured in a culture medium (L15 medium+1% penicillin-streptomycin dual-antibiotic solution+10% fetal bovine serum) in an incubator at 37° C.
MDA-MB-231 cells were seeded at 5000 cells/well (90 μL) on a 96-well plate and cultured for 24 h.
as §2, §3, §4, §5, §6, §7

C-33 A cells = assay: Anti-proliferative toxicity of C63 in tumor cell lines (CCK8): C-33 A; conditions: Homo sapiens, 72 h, 3 days, read-out: Inhibition rate
Description: as §1
C-33 A cells (purchased from the Cell Bank of the Chinese Academy of Sciences, Cat. No. TCHu176) were subcultured in a culture medium (MEM medium+1% penicillin-streptomycin dual-antibiotic solution+10% fetal bovine serum) in an incubator at 5% carbon dioxide and 37° C.
C-33 A cells were seeded at 5000 cells/well (90 μL) on a 96-well plate and cultured for 24 h.
as §2, §3, §4, §5, §6, §7

Hep G2 cells = assay: Anti-proliferative toxicity of C63 in tumor cell lines (CCK8): Hep G2; conditions: Homo sapiens, HepG2, 72 h, 3 days, read-out: Inhibition rate
Description: as §1
HepG2 cells (purchased from the Cell Bank of the Chinese Academy of Sciences, Cat. No. TCHu72) were subcultured in a culture medium (MEM medium+1% penicillin-streptomycin dual-antibiotic solution+10% fetal bovine serum) in an incubator at 5% carbon dioxide and 37° C.
Hep G2 cells were seeded at 2000 cells/well (90 μL) on a 96-well plate and cultured for 24 h.
as §2, §3, §4, §5, §6, §7

PC-3 cells = assay: Anti-proliferative toxicity of C63 in tumor cell lines (CCK8): PC-3; conditions: Homo sapiens, 72 h, 3 days, read-out: Inhibition rate
Description: as §1
PC-3 cells (purchased from the Cell Bank of the Chinese Academy of Sciences, Cat. No. SCSP-532) were subcultured in a culture medium (F12K medium+1% penicillin-streptomycin dual-antibiotic solution+10% fetal bovine serum) in an incubator at […] and 37° C.
PC-3 cells were seeded at 4000 cells/well (90 μL) on a 96-well plate and cultured for 24 h.
as §2, §3, §4, §5, §6, §7

With `C[C@]12C=CC(=O)N[C@@H]1CC[C@@H]1[C@@H]2CC[C@]2(C)[C@@H](C(=O)Nc3cccc(N[C@@H]4CCC[C@@H](Nc5cccc6c5C(=O)N([C@H]5CCC(=O)NC5=O)C6=O)C4)c3)CC[C@@H]12` [C63, N-(3-(N—(N-(4-(2-(3S-(2,6-dioxopiperidine))-isoindole-1,3-dione))-1R,3R-cyclohexanediamine))phenyl)-3-oxo-4-aza-5α-androst-1-ene-17β-carboxamide] as the compound, how does the inhibition at 64 pM (DLD-1 cells; 0.000064 μM) read?
The inhibition at 64 pM was 0.83%.

And the inhibition at 0.00032 µM (DLD-1 cells; 0.000320 μM)?
Its inhibition at 0.00032 µM is 7.21%.

And the inhibition at 0.0016 µM (DLD-1 cells; 0.001600 μM)?
The inhibition at 0.0016 µM was 40.5%.

And the inhibition at 0.008 µM (DLD-1 cells; 0.008000 μM)?
Its inhibition at 0.008 µM is 67.5%.

What about the inhibition at 0.04 µM (DLD-1 cells; 0.040000 μM) of the same compound?
Its inhibition at 0.04 µM is 76.3%.

And the inhibition at 0.2 µM (DLD-1 cells; 0.200000 μM)?
Its inhibition at 0.2 µM is 78.3%.

And the inhibition at 1 µM (DLD-1 cells; 1.000000 μM)?
Its inhibition at 1 µM is 79.7%.

What about the inhibition at 5 µM (DLD-1 cells; 5.000000 μM) of the same compound?
The inhibition at 5 µM was 83.1%.

What about the inhibition at 64 pM (HL-60 cells; 0.000064 μM) of the same compound?
Its inhibition at 64 pM is 73.5%.

And the inhibition at 0.00032 µM (HL-60 cells; 0.000320 μM)?
Its inhibition at 0.00032 µM is 80.2%.

What about the inhibition at 0.0016 µM (HL-60 cells; 0.001600 μM) of the same compound?
The inhibition at 0.0016 µM was 89.5%.

What about the inhibition at 0.008 µM (HL-60 cells; 0.008000 μM) of the same compound?
Its inhibition at 0.008 µM is 90.7%.

And the inhibition at 0.04 µM (HL-60 cells; 0.040000 μM)?
Its inhibition at 0.04 µM is 92.4%.

What about the inhibition at 0.2 µM (HL-60 cells; 0.200000 μM) of the same compound?
The inhibition at 0.2 µM was 94.3%.

And the inhibition at 1 µM (HL-60 cells; 1.000000 μM)?
Its inhibition at 1 µM is 91.6%.

And the inhibition at 5 µM (HL-60 cells; 5.000000 μM)?
Its inhibition at 5 µM is 87.5%.

What about the inhibition at 64 pM (NCI-N87 cells; 0.000064 μM) of the same compound?
The inhibition at 64 pM was 7.79%.

And the inhibition at 0.00032 µM (NCI-N87 cells; 0.000320 μM)?
The inhibition at 0.00032 µM was 32.7%.

And the inhibition at 0.0016 µM (NCI-N87 cells; 0.001600 μM)?
Its inhibition at 0.0016 µM is 61%.

And the inhibition at 0.008 µM (NCI-N87 cells; 0.008000 μM)?
Its inhibition at 0.008 µM is 66.7%.

What about the inhibition at 0.04 µM (NCI-N87 cells; 0.040000 μM) of the same compound?
The inhibition at 0.04 µM was 64.1%.

What about the inhibition at 0.2 µM (NCI-N87 cells; 0.200000 μM) of the same compound?
The inhibition at 0.2 µM was 62.5%.

What about the inhibition at 1 µM (NCI-N87 cells; 1.000000 μM) of the same compound?
Its inhibition at 1 µM is 64%.

And the inhibition at 5 µM (NCI-N87 cells; 5.000000 μM)?
The inhibition at 5 µM was 65.2%.

What about the inhibition at 64 pM (MDA-MB-231 cells; 0.000064 μM) of the same compound?
Its inhibition at 64 pM is 27.6%.

And the inhibition at 0.00032 µM (MDA-MB-231 cells; 0.000320 μM)?
Its inhibition at 0.00032 µM is 62.8%.

What about the inhibition at 0.0016 µM (MDA-MB-231 cells; 0.001600 μM) of the same compound?
The inhibition at 0.0016 µM was 75.6%.

What about the inhibition at 0.008 µM (MDA-MB-231 cells; 0.008000 μM) of the same compound?
Its inhibition at 0.008 µM is 79.3%.

What about the inhibition at 0.04 µM (MDA-MB-231 cells; 0.040000 μM) of the same compound?
Its inhibition at 0.04 µM is 80.1%.

What about the inhibition at 0.2 µM (MDA-MB-231 cells; 0.200000 μM) of the same compound?
Its inhibition at 0.2 µM is 79.9%.

What about the inhibition at 1 µM (MDA-MB-231 cells; 1.000000 μM) of the same compound?
Its inhibition at 1 µM is 78.8%.

And the inhibition at 5 µM (MDA-MB-231 cells; 5.000000 μM)?
Its inhibition at 5 µM is 80.4%.

And the inhibition at 64 pM (C-33 A cells; 0.000064 μM)?
The inhibition at 64 pM was 21.5%.

And the inhibition at 0.00032 µM (C-33 A cells; 0.000320 μM)?
Its inhibition at 0.00032 µM is 15.9%.

What about the inhibition at 0.0016 µM (C-33 A cells; 0.001600 μM) of the same compound?
The inhibition at 0.0016 µM was 25.4%.

And the inhibition at 0.008 µM (C-33 A cells; 0.008000 μM)?
Its inhibition at 0.008 µM is 35.5%.

And the inhibition at 0.04 µM (C-33 A cells; 0.040000 μM)?
Its inhibition at 0.04 µM is 48.3%.

What about the inhibition at 0.2 µM (C-33 A cells; 0.200000 μM) of the same compound?
The inhibition at 0.2 µM was 56.7%.

What about the inhibition at 1 µM (C-33 A cells; 1.000000 μM) of the same compound?
Its inhibition at 1 µM is 63.9%.

What about the inhibition at 5 µM (C-33 A cells; 5.000000 μM) of the same compound?
Its inhibition at 5 µM is 72.3%.

And the inhibition at 64 pM (Hep G2 cells; 0.000064 μM)?
Its inhibition at 64 pM is 1.97%.

And the inhibition at 0.00032 µM (Hep G2 cells; 0.000320 μM)?
The inhibition at 0.00032 µM was 14.1%.

And the inhibition at 0.0016 µM (Hep G2 cells; 0.001600 μM)?
The inhibition at 0.0016 µM was 66.9%.

And the inhibition at 0.008 µM (Hep G2 cells; 0.008000 μM)?
Its inhibition at 0.008 µM is 79.3%.

What about the inhibition at 0.04 µM (Hep G2 cells; 0.040000 μM) of the same compound?
The inhibition at 0.04 µM was 87.1%.

What about the inhibition at 0.2 µM (Hep G2 cells; 0.200000 μM) of the same compound?
Its inhibition at 0.2 µM is 87.3%.

What about the inhibition at 1 µM (Hep G2 cells; 1.000000 μM) of the same compound?
The inhibition at 1 µM was 85.7%.

And the inhibition at 5 µM (Hep G2 cells; 5.000000 μM)?
Its inhibition at 5 µM is 81.1%.

And the inhibition at 64 pM (PC-3 cells; 0.000064 μM)?
The inhibition at 64 pM was 45.1%.

And the inhibition at 0.00032 µM (PC-3 cells; 0.000320 μM)?
The inhibition at 0.00032 µM was 65.1%.

And the inhibition at 0.0016 µM (PC-3 cells; 0.001600 μM)?
Its inhibition at 0.0016 µM is 78.8%.

And the inhibition at 0.008 µM (PC-3 cells; 0.008000 μM)?
Its inhibition at 0.008 µM is 82.8%.

What about the inhibition at 0.04 µM (PC-3 cells; 0.040000 μM) of the same compound?
Its inhibition at 0.04 µM is 80.2%.

What about the inhibition at 0.2 µM (PC-3 cells; 0.200000 μM) of the same compound?
Its inhibition at 0.2 µM is 78.4%.

And the inhibition at 1 µM (PC-3 cells; 1.000000 μM)?
The inhibition at 1 µM was 78.4%.

And the inhibition at 5 µM (PC-3 cells; 5.000000 μM)?
The inhibition at 5 µM was 82.1%.
